Experimental data: patent US20230346824A1, “MEANS AND METHODS OF PREVENTING AND TREATING INFECTIONS” (SolyPlus GmbH, priority 2020, published 2023)

System: S protein monomer
Experiment: MST binding to RED labelled S protein monomer in 50% negative human serum (FIGS. 4, 7, 8, 10, 12)
Parameters: species or system SARS-CoV-2
Settings: 20 nM S protein monomer, ligand 0.5 µM - 0.2 nM arbitrary units, PBS 0.05% Tween 20, 50% negative human serum

Structure (SMILES) | binding to S protein monomer detected by MST
O=C[C@H](O)[C@@H](O)[C@@H](O)CO [L+Arabinose, L-Arabinose] | No binding could be detected
Cn1c(=O)c2c(ncn2C)n(C)c1=O [Coffein, caffeine] | A binding could be detected
O=C[C@H](O)[C@@H](O)[C@@H](O)[C@H](O)CO [D+Galactose, D-Galactose] | A binding could be detected
